From ChEMBL document CHEMBL5390302, “Novel PARP7 Inhibitors for Treating Cancer” (ACS Med Chem Lett, 2023)

Biological target: T1, Protein mono-ADP-ribosyltransferase TIPARP (Homo sapiens, UniProt Q7Z3E1)
T1 sequence (Q7Z3E1 whole entry): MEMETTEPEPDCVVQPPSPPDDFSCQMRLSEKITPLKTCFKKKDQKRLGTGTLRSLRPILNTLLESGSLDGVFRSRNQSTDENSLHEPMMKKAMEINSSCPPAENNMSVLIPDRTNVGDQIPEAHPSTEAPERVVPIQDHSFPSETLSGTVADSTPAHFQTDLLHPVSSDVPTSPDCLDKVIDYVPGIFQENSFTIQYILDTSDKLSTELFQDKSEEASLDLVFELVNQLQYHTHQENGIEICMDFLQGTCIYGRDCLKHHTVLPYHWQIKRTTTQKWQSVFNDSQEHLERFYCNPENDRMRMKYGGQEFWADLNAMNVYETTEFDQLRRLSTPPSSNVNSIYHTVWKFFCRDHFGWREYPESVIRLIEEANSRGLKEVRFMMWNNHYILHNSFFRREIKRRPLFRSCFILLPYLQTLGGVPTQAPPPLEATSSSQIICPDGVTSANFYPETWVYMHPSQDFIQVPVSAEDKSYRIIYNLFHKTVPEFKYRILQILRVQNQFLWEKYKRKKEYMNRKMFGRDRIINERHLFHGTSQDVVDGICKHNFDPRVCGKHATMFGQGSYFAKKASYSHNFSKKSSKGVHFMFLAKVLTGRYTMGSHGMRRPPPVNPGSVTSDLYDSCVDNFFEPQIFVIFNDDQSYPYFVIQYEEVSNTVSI
Test: Displacement of biotinylated RBN011147 probe from PARP7 (unknown origin) preincubated for 1 hr followed by incubation with probe for 1.5 hrs by MSD electrochemiluminescent assay

IC50	SMILES
0.188 nM	C[C@@H](CCCn1ccc2cc(-c3ncc(Cl)c(N)n3)c(F)cc2c1=O)Nc1cn[nH]c(=O)c1C(F)(F)F
0.188 nM	C[C@@H](CCCn1ccc2cc(-c3ncc(C(F)(F)F)c(N4CC(C#N)C4)n3)c(F)cc2c1=O)Nc1cn[nH]c(=O)c1C(F)(F)F
0.185 nM	C[C@@H](CCCn1ccc2cc(-c3ncc(C(F)(F)F)c(N4C[C@@H](O)[C@@H]4C)n3)c(F)cc2c1=O)Nc1cn[nH]c(=O)c1C(F)(F)F
